One series relates to CEM (uninfected) cells. Nature of the series: Cell cycle analysis (PI staining, FACS) of uninfected CEM cells. It counts as cell-based. The following applies: TNF-α, 10 μM, 48 h; for effect on cell cycle progression: uninfected CEM. The text has this:
(§1) We next examined the cellular effects of these drugs on the cell cycle progression of HIV-1-infected and uninfected cells. […]. […] Therefore, the selective killing mechanism by this particular drug might partially be responsible for the decrease in HIV-1 titers observed in the infected cells. We also reasoned that Purvalanol A may be toxic to uninfected induced cells by increasing the G2/M population and the increase of apoptosis, as is evident in FIG. 2A. […] U937 is the uninfected monocytic parental cell line, and U1 is the U937 cell line infected with two copies of integrated HIV-1, only one of which is wild type for viral progeny formation. […]. This is in contrast to many apoptosis-inducing agents, such as TNF-α DNA-damaging agents (gamma irradiation, mitomycin C [6]), or sodium butyrate, in which cases the apoptosis of HIV-1-infected cell accompanies massive production and the release of infectious HIV-1 virions.
(§2) Forty-eight hours later, cells were collected, fixed with 70% ethanol, PI stained, and analyzed by FACS. (B and C) Experiments similar to the experiment in panel A were performed in ACH2 (B) or U1 (C) cells (both latently HIV-1 infected) plus TNF-α, followed by ethanol fixation, PI staining, and analysis by FACS. Apoptosis (Apop) represents a mixture of cells from either G1, S, or G2/M with characteristics of cell death.
(§3) For fluorescence-activated cell sorting (FACS) analysis, cells were stained with a cocktail of propidium iodide (PI) buffer (PBS with Ca^2+ and Mg^2+, RNase A [10 μg/ml], NP-40 [0.1%], and PI [50 μg/ml]) followed by cell-sorting analysis. FACS data acquired were analyzed by ModFit LT software (Verity Software House, Inc.).

Series [1] relates to ACH2 cells (latently HIV-1 infected). Nature of the series: Cell cycle analysis (PI staining, FACS) of HIV-1-infected ACH2 cells. It is filed as cell-based. The following applies: 10 μM; for apoptosis in HIV-1-infected cells: ACH2 plus TNF-α, 48 h (FIG. 2B).
From the text: as §1, §2, §3

Another series has as its system HIV-1 LTR. Nature of the series: HIV-1 LTR-CAT reporter, basal transcription in CEM cells. It counts as cell-based. The following applies: ca. 10 μM, 20 h. The text has this: We next sought to determine whether the inhibition of HIV-1 transcription, observed above, could be mediated specifically by cdk inhibitors or by general cell cycle inhibitors. To distinguish between the two possibilities, we performed transfection experiments with all three cdk inhibitors tested above and two other well-established cell cycle inhibitors, namely, hydroxyurea and nocodazole. Hydroxyurea blocks DNA replication by inhibiting ribonucleotide reductase and thus arrests cell cycle progression at the G1/S checkpoint, while nocodazole blocks at G2/M by promoting tubulin depolymerization. […] Therefore, the basal transcription of HIV-1 was inhibited by purine analogs and not general cell cycle inhibitors.
FIG. 3 discloses inhibition of HIV-1 basal and activated transcription by cdk inhibitors. […] The graphs at the bottom of the figure represent the effect of various concentrations of general cell cycle inhibitors (hydroxyurea and nocodazole) on CEM cells. (B) Inhibition of activated transcription in CEM cells was examined using transfected HIV-1 LTR-CAT, together with pcTat plasmid. (C) Experiment similar experiment to that in panel B, except that pcTat plasmid was replaced with E. coli-expressed and purified Tat protein
Lymphocyte CEM (12D7) cells were grown to mid-log phase and were processed for protein electroporation according to a previously published procedure (24). […]

For series [2], the system named is uninfected T and monocytic cells. As to the kind of experiment: Initial test of cdk inhibitors on uninfected cells (data not shown).
The target in another series is cdk4 (Homo sapiens, UniProt P11802). The following applies: cited from earlier work.
Series [3] has as its system U1 cells (latently HIV-1 infected). Nature of the series: Cell cycle analysis (PI staining, FACS) of HIV-1-infected U1 cells. The following applies: U1 cells plus TNF-α (FIG. 2C).

Sequence of cdk4 (P11802 whole entry, species assumed): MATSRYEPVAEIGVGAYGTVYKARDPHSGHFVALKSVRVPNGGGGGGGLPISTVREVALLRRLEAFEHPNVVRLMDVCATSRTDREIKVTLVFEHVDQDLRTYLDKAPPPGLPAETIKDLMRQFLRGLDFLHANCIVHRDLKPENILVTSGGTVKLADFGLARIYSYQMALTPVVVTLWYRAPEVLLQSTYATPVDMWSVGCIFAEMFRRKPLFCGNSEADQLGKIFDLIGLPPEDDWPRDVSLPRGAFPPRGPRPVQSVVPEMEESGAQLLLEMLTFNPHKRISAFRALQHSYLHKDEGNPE
Sequence of cdk4 (P24385 whole entry partner, species assumed): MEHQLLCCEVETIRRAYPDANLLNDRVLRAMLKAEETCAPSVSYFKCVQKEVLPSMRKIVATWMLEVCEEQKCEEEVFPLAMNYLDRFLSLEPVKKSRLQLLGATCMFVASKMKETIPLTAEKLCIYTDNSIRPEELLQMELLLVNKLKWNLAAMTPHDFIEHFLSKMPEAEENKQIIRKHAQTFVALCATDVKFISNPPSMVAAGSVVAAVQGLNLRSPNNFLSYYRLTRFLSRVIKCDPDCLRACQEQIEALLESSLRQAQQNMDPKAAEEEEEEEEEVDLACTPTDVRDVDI

In the case of `CC(C)[C@H](CO)Nc1nc(Nc2cccc(Cl)c2)c2ncn(C(C)C)c2n1` [Purvalanol A], the “effect on cell cycle progression” value in the series on CEM (uninfected) cells is “showed an increase in the G2/M population and induced apoptosis”. Further, in series [1], the “apoptosis in HIV-1-infected cells” value is “increased apoptosis”. Further, in the series on HIV-1 LTR, the “inhibition of HIV-1 basal transcription (CAT activity)” value is “dramatic inhibition”. For the same compound, the “toxicity in uninfected cells” value in series [2] is reported as “lack of toxicity”.

Roscovitine: the apoptosis with CEM (uninfected) cells (CEM cells) turned out to be 4.9%; in series [1] (ACH2 cells, TNF-α, 48 h), 30.21%. Further, the “effect on cell cycle progression” value in the series on CEM (uninfected) cells is on record as “did not change the cell cycle progression significantly”. In addition, the “apoptosis in HIV-1-infected cells” value in series [1] is on record as “increased apoptosis”. Also, the “inhibition of HIV-1 basal transcription (CAT activity)” value with HIV-1 LTR is given as “dramatic inhibition”. In addition, the “reported inhibition of cdk4” value at cdk4 is listed as “not cdk4 or -6”. In series [3], the “apoptosis in U1 cells” value is “abundance of the apoptotic population”. In series [2], the “toxicity in uninfected cells” value is given as “lack of toxicity”.

These data come from patent US20030229105A1, “Treatment of autoimmune disorders” (Cyclacel Limited, priority 2002, published 2003).
